In article PMC10912603 (Food Chemistry: X, 2024):

Legend:
anti-EUGs mAb [1] = test: broad-spectrum indirect competitive ELISA; format: binding, mice; details: for CR (cross-reactivity): CR=[(IC50 eugenol)/(IC50 analog)]×100%; for LOD (IC10) / linear range (IC20–IC80): in buffer solution
[2] = National Toxicology Program; ref Li et al., 2015; cited from earlier work
1B5 mAb = details: previously reported mAb; ref [2] Lei et al., 2023; cited from earlier work
anti-EUGs mAb [3] = test: antibody affinity by saturation concentration method; format: binding, mice; details: mAb to eugenol
[4] = ref Li et al., 2015; cited from earlier work

CCCCNc1ccc(C(=O)OCCN(C)C)cc1 [Tetracaine]
CR (cross-reactivity) (anti-EUGs mAb [1]): <0.4%

CC(C)c1cccc(C(C)C)c1O [Propofol]
CR (cross-reactivity) (anti-EUGs mAb [1]): <0.4%

Oc1ccccc1O [Catechol]
CR (cross-reactivity) (anti-EUGs mAb [1]): <0.4%

COc1cc(C=O)ccc1O [Vanillin]
CR (cross-reactivity) (anti-EUGs mAb [1]): <0.4%

COc1ccc(C=O)cc1OC [Veratraldehyde]
CR (cross-reactivity) (anti-EUGs mAb [1]): <0.4%

CCOC(=O)c1cccc(N)c1.CS(=O)(=O)O [Tricaine methanesulfonate]
CR (cross-reactivity) (anti-EUGs mAb [1]): <0.4%

C=CCc1ccc(OC)c(OC)c1 [Methyl eugenol]
CR (cross-reactivity) (anti-EUGs mAb [1]): 4773.8% | LOD (IC10) (anti-EUGs mAb [1]): 0.06 ng/mL | linear range (IC20–IC80) (anti-EUGs mAb [1]): 0.15 to 4.30 ng/mL | liver cancer risk [2]: potential to elevate the risk of liver cancer

CCc1ccc(O)c(OC)c1 [4-Ethyl-2-methoxyphenol]
CR (cross-reactivity) (anti-EUGs mAb [1]): 8.7%

C/C=C/c1ccc(OC)c(OC)c1 [Methyl isoeugenol]
CR (cross-reactivity) (anti-EUGs mAb [1]): 8679.5% | LOD (IC10) (anti-EUGs mAb [1]): 0.02 ng/mL | linear range (IC20–IC80) (anti-EUGs mAb [1]): 0.06 to 3.04 ng/mL

Isoeugenol
CR (cross-reactivity) (anti-EUGs mAb [1]): 25460.0% | LOD (IC10) (anti-EUGs mAb [1]): 0.00935 ng/mL | linear range (IC20–IC80) (anti-EUGs mAb [1]): 0.026 to 0.865 ng/mL

CCOC(=O)c1ccc(N)cc1 [Benzocaine]
CR (cross-reactivity) (anti-EUGs mAb [1]): <0.4%

COc1ccccc1O [Guaiacol]
CR (cross-reactivity) (anti-EUGs mAb [1]): <0.4%

C=CCc1ccc(O)c(OC)c1 [Eugenol]
IC50 of mAb 1B5 (1B5 mAb): 9.23 ng/mL | dissociation constant Ka (anti-EUGs mAb [3]; Ka is the inverse of Kd): 1.3e+09 L/mol | Kd (anti-EUGs mAb [3]; read-out: affinity constant Kd): 0.77 nM | IARC carcinogen category [4]: Group 3 carcinogen | CR (cross-reactivity) (anti-EUGs mAb [1]): 100% | LOD (IC10) (anti-EUGs mAb [1]): 3.16 ng/mL | linear range (IC20–IC80) (anti-EUGs mAb [1]): 7.92 to 184.05 ng/mL
